For the series, the system named is CCRIS mutagenicity, Ames/micronucleus/aberration tests. The series is described as follows: CCRIS mutagenicity studies.
Setting [1] is: Test System: AMES SALMONELLA TYPHIMURIUM, Strain/Indicator: TA98, Metabolic Activation: NONE, Method: STANDARD PLATE.
[2] abbreviates: Test System: AMES SALMONELLA TYPHIMURIUM, Strain/Indicator: TA100, Metabolic Activation: NONE, Method: STANDARD PLATE.
[3] abbreviates: Test System: AMES SALMONELLA TYPHIMURIUM, Strain/Indicator: TA1537, Metabolic Activation: NONE, Method: STANDARD PLATE.
The mark [4] stands for this setting: Test System: AMES SALMONELLA TYPHIMURIUM, Strain/Indicator: TA98, Metabolic Activation: RAT, LIVER, S-9, AROCLOR 1254, Method: STANDARD PLATE.
The mark [5] stands for this setting: Test System: AMES SALMONELLA TYPHIMURIUM, Strain/Indicator: TA100, Metabolic Activation: NONE, Method: PREINCUBATION
The mark [6] stands for this setting: Test System: AMES SALMONELLA TYPHIMURIUM, Strain/Indicator: TA102, Metabolic Activation: NONE, Method: PREINCUBATION

The structures appear in SMILES notation. Activity calls are given as the source filed them. The rule behind the calls is not given here.

As to `Cc1c2ccncc2c(C)c2c1[nH]c1ccc(N)cc12`, the mutagenic call by setting is: under setting [1], “active; positive”; (Test System: AMES SALMONELLA TYPHIMURIUM, Strain/Indicator: TA98, Metabolic Activation: RAT, LIVER, S-9, PHENOBARBITAL, Method: STANDARD PLATE) “active; positive”; under setting [2], “inactive; negative”; (Test System: AMES SALMONELLA TYPHIMURIUM, Strain/Indicator: TA100, Metabolic Activation: RAT, LIVER, S-9, PHENOBARBITAL, Method: STANDARD PLATE) “inactive; negative”; under setting [3], “active; positive”; (Test System: AMES SALMONELLA TYPHIMURIUM, Strain/Indicator: TA1537, Metabolic Activation: RAT, LIVER, S-9, PHENOBARBITAL, Method: STANDARD PLATE) “active; positive”. Besides, the mutagenic call by setting is: (Test System: AMES SALMONELLA TYPHIMURIUM, Strain/Indicator: TA1538, Metabolic Activation: NONE, Method: STANDARD PLATE) “active; positive”; (Test System: AMES SALMONELLA TYPHIMURIUM, Strain/Indicator: TA1538, Metabolic Activation: RAT, LIVER, S-9, PHENOBARBITAL, Method: STANDARD PLATE) “active; positive”.
As for `O=[N+]([O-])c1c(Cl)cc2c(c1Cl)Oc1cc(Cl)c(Cl)cc1O2`, the mutagenic call is, setting by setting: under setting [1], “inactive; negative”; (Test System: AMES SALMONELLA TYPHIMURIUM, Strain/Indicator: TA98, Metabolic Activation: RAT, LIVER, S-9, AROCLOR, Method: STANDARD PLATE) “inactive; negative”; under setting [2], “inactive; negative”; (Test System: AMES SALMONELLA TYPHIMURIUM, Strain/Indicator: TA100, Metabolic Activation: RAT, LIVER, S-9, AROCLOR, Method: STANDARD PLATE) “inactive; negative”.
With `CN1CCN=C(c2ccccc2)c2cc(Cl)ccc21`, the mutagenic call by setting is: under setting [1], “inactive; negative”; under setting [4], “inactive; negative”; under setting [2], “inactive; negative”; (Test System: AMES SALMONELLA TYPHIMURIUM, Strain/Indicator: TA100, Metabolic Activation: RAT, LIVER, S-9, AROCLOR 1254, Method: STANDARD PLATE) “inactive; negative”; (Test System: AMES SALMONELLA TYPHIMURIUM, Strain/Indicator: TA1535, Metabolic Activation: NONE, Method: STANDARD PLATE) “inactive; negative”; (Test System: AMES SALMONELLA TYPHIMURIUM, Strain/Indicator: TA1535, Metabolic Activation: RAT, LIVER, S-9, AROCLOR 1254, Method: STANDARD PLATE) “inactive; negative”. The mutagenic call under setting [3] was “inactive; negative” and the mutagenic call (Test System: AMES SALMONELLA TYPHIMURIUM, Strain/Indicator: TA1537, Metabolic Activation: RAT, LIVER, S-9, AROCLOR 1254, Method: STANDARD PLATE) is “inactive; negative”.
On to `C[n+]1ccc(-c2ccccc2)cc1`, for which the mutagenic call by setting is: under setting [5], “inactive; negative”; under setting [6], “inactive; negative”.
On to `Nc1cc(S(=O)(=O)O)c2cccc(S(=O)(=O)O)c2c1`, for which the mutagenic call is “inactive; negative” (Test System: AMES SALMONELLA TYPHIMURIUM, Strain/Indicator: TA98, Metabolic Activation: NONE, Method: PREINCUBATION); “inactive; negative” (Test System: AMES SALMONELLA TYPHIMURIUM, Strain/Indicator: TA98, Metabolic Activation: RAT LIVER S-9, PHENOBARBITAL AND BETA-NAPHTHOFLAVONE, Method: PREINCUBATION); “inactive; negative” under setting [5]; “inactive; negative” (Test System: AMES SALMONELLA TYPHIMURIUM, Strain/Indicator: TA100, Metabolic Activation: RAT LIVER S-9, PHENOBARBITAL AND BETA-NAPHTHOFLAVONE, Method: PREINCUBATION); “inactive; negative” (Test System: AMES SALMONELLA TYPHIMURIUM, Strain/Indicator: TA1535, Metabolic Activation: NONE, Method: PREINCUBATION); “inactive; negative” (Test System: AMES SALMONELLA TYPHIMURIUM, Strain/Indicator: TA1535, Metabolic Activation: RAT LIVER S-9, PHENOBARBITAL AND BETA-NAPHTHOFLAVONE, Method: PREINCUBATION). Also, the mutagenic call (Test System: AMES SALMONELLA TYPHIMURIUM, Strain/Indicator: TA1537, Metabolic Activation: NONE, Method: PREINCUBATION) was “inactive; negative”; the mutagenic call (Test System: AMES SALMONELLA TYPHIMURIUM, Strain/Indicator: TA1537, Metabolic Activation: RAT LIVER S-9, PHENOBARBITAL AND BETA-NAPHTHOFLAVONE, Method: PREINCUBATION) was “inactive; negative”; the mutagenic call (Test System: AMES SALMONELLA TYPHIMURIUM, Strain/Indicator: TA1538, Metabolic Activation: NONE, Method: PREINCUBATION) is “inactive; negative”; the mutagenic call (Test System: AMES SALMONELLA TYPHIMURIUM, Strain/Indicator: TA1538, Metabolic Activation: RAT LIVER S-9, PHENOBARBITAL AND BETA-NAPHTHOFLAVONE, Method: PREINCUBATION) is “inactive; negative”; the mutagenic call (Test System: E.COLI, Strain/Indicator: WP2UVRA, Metabolic Activation: NONE, Method: PREINCUBATION) was “inactive; negative”; the mutagenic call (Test System: E.COLI, Strain/Indicator: WP2UVRA, Metabolic Activation: RAT LIVER S-9, PHENOBARBITAL AND BETA-NAPHTHOFLAVONE, Method: PREINCUBATION) was “inactive; negative”.
On to `BrCc1c2ccccc2cc2ccc3ccccc3c12`, for which the mutagenic call was “active; positive” under setting [1] and “active; positive” under setting [2].
Take `CC(=O)N(O)c1ccc2ccc3cccc4ccc1c2c34`: the mutagenic call is “active; positive” (Test System: AMES SALMONELLA TYPHIMURIUM, Strain/Indicator: TA98(1,8-DNP6), Metabolic Activation: NONE, Method: STANDARD PLATE); “active; positive” (Test System: AMES SALMONELLA TYPHIMURIUM, Strain/Indicator: TA98(1,8-DNP6), Metabolic Activation: RAT, LIVER, S-9, AROCLOR 1254, Method: STANDARD PLATE); “active; positive” (Test System: AMES SALMONELLA TYPHIMURIUM, Strain/Indicator: TA98(NR), Metabolic Activation: NONE, Method: STANDARD PLATE); “active; positive” (Test System: AMES SALMONELLA TYPHIMURIUM, Strain/Indicator: TA98(NR), Metabolic Activation: RAT, LIVER, S-9, AROCLOR 1254, Method: STANDARD PLATE); “active; positive” under setting [1]; “active; positive” under setting [4].
Regarding `O=C([O-])[C@H](O)[C@@H](O)[C@H](O)[C@H](O)CO.O=C([O-])[C@H](O)[C@@H](O)[C@H](O)[C@H](O)CO.[Cu+2]`, the mutagenic call runs as follows: (Test System: AMES SALMONELLA TYPHIMURIUM, Strain/Indicator: TA97, Metabolic Activation: NONE, Method: PREINCUBATION) “inactive; negative”; (Test System: AMES SALMONELLA TYPHIMURIUM, Strain/Indicator: TA97, Metabolic Activation: S-9, Method: PREINCUBATION) “inactive; negative”; under setting [6], “inactive; negative”; (Test System: AMES SALMONELLA TYPHIMURIUM, Strain/Indicator: TA102, Metabolic Activation: S-9, Method: PREINCUBATION) “inactive; negative”.

For the origin of these results see PubChem BioAssay AID1259407 (Chemical Carcinogenesis Research Information System (CCRIS), 2018).
